These results are taken from US11230711B2, “Inhibition of LET7I as a means to enhance the protective effect of progesterone against stroke” (UNIVERSITY OF NORTH TEXAS HEALTH SCIENCE CENTER, priority 2017, dated 2022).

The subject of one test is C57BL/6J mice. In words: Ischemic lesion / infarct size by TTC staining after middle cerebral artery occlusion (MCAo). Format: in vivo, mouse. The source says: Mice will receive bilateral ovariectomy (OVX) using a dorsal approach under isoflurane anesthesia. A small cut is made through skin and abdominal muscles in left and right lateral abdomen. The arteries to left and right ovaries will be ligated, and ovaries will be cut. The muscles and skin will be sutured with 4-0 Vicryl absorbable suture.
Fused steroid pellets will be made using the flash-melt method described by Ratka and Simpkins. The pellets (containing P4 or control) will be implanted subcutaneously into abdominal area.
MCAo will be used to induce transient focal cerebral ischemia (as previously described). Briefly, under isoflurane anesthesia, a mid line incision will be made on the neck. Common carotid artery (CCA), external carotid artery (ECA) and internal carotid artery (ICA) will be dissected from the connective tissue. A silicon coated 6-0 nylon monofilament will be inserted into the left ECA and advanced till it occludes the origin of MCA. The MCA will be occluded for 60 minutes and then reperfusion attained by withdrawing the suture.
ICV injections will be performed as described by Sananbenesi et al.. In brief, mice will be anaesthetized and affixed with a cannula ipsilateral to the side of surgery (coordinates from Bregma: AP1/4_0.4 mm, L1/4_1.15 mm, V1/4_2.0 mm). […]

The subject of the next test is let-7i. In words: let-7i expression in the penumbra of the ischemic brain after MCAo (qRT-PCR). The format is in vivo, mouse. Conditions: MCAo mice; day 7 up to 14 days following stroke; FIG. 11E. The source says:
(§1) (FIG. 11A) Representative immunoblots probed for Pgrmc1, pro- and mature-BDNF. (FIG. 11B) Quantitation graph of relative Pgrmc1 protein ratio to Gapdh (n=4-5 per group). (FIG. 11C) Quantitation graph of relative pro-BDNF protein ratio to Gapdh (n=4-5 per group). (FIG. 11D) Quantitation graph of relative mature BDNF protein ratio to Gapdh (n=4-5 per group). (FIG. 11E) Quantitation graph of relative let-7i expression in ischemic brain (n=4-5 per group). n.s: not significant, ** P<0.01 and *P<0.05 compared to sham, and #P<0.05 compared to P4+scrambled. Data are presented as the mean±SEM.
For miRNA expression measurements, total RNA (10 ng) was reverse transcribed into cDNA in a total volume of 15 μl using the microRNA cDNA Archive Kit (ThermoFisher Scientific) according to the manufacturer's instructions. The reaction mixture contained water, 2× quantitative PCR Master Mix (Eurogentec), and 20× Assay-On-Demand for each target gene. A separate reaction mixture was prepared for the endogenous control, U6. The reaction mixture was aliquoted in a 96-well plate, and cDNA added to give a final volume of 20 μl. Each sample was analyzed in triplicate. The comparative cycle threshold (Ct) method (2^−ΔΔCt) was used to calculate the relative changes in target miRNA expression.
All mice were first ovariectomized to deplete endogenous ovarian hormone levels. […]
For orientation: In qPCR the cycle at which signal appears reflects the starting amount.

The test system of the next test is Pgrmc1. Put plainly: Pgrmc1 protein in the penumbra after MCAo (Western blot). Format: in vivo, mouse. The conditions noted are these: MCAo mice; day 7 and day 14; FIG. 11B.
Excerpt: as §1
Primary cortical astrocytes and mouse brains were lysed with RIPA lysis buffer containing protease and phosphatase inhibitors, as previously described (44). After homogenization, samples were centrifuged at 45,000 rpm for 30 min at 4° C. and supernatants were collected. Total protein concentrations were determined using the Bio-Rad DC protein assay kit (Bio-Rad Laboratories). Cell lysates were separated by SDS-PAGE and transferred onto polyvinylidene fluoride membrane (Bio-Rad Laboratories) by electroblotting. Membranes were blocked with 5% skim milk in tris-buffered saline containing 0.2% Tween 20 (TBS-T) for 1 h at room temperature, followed by overnight incubations of primary antibodies at 4° C. […]
For orientation: A western blot detects proteins with antibodies after separation by electrophoresis.

The subject of test [1] is primary cortical astrocytes. The conditions noted are these: 10 nM P4; reported in reference (10); cited from earlier work.

Consider `CC(=O)[C@H]1CC[C@H]2[C@@H]3CCC4=CC(=O)CC[C@]4(C)[C@H]3CC[C@]12C` [P4, progesterone], for which the “stroke-induced lesion size (ischemic injury), TTC stain” value in the test with C57BL/6J mice (Example 1, MCAo mice, P4 pellet, ICV Let-7i antagomir, FIG. 6) is listed as “no statistically significant effect”. For the same molecule, the “relative infarct size (ischemic injury), TTC staining” value with C57BL/6J mice (Example 2, 24 h after MCAo, vs cholesterol+scrambled, FIG. 12B) was “did not”. For the same molecule, in the test with let-7i, the “stroke-induced increase in let-7i expression in the penumbra” value is listed as “did not attenuate”. Besides, the “Pgrmc1 protein level in the penumbra” value in the test with Pgrmc1 is “did not restore”. In addition, in test [1], the “release of BDNF from astrocytes” value was “maximal release of BDNF”.
